We go through 20 molecules from patent publication US10385057B2, “Pyrazole compounds and methods of making and using same” (Lundbeck La Jolla Research Center, Inc., priority 2015, dated 2019).

Molecules are shown by their SMILES.

Broadly, the IC50 is the concentration needed to halve the response being measured. A higher IC50 goes with lower potency.

Experiment [1] concerns the target T1, MAGL (Mus musculus, UniProt O35678).
T1 construct: mouse brain membrane fraction or cell lysates for mouse assays; from tissue
T1 sequence (O35678 1-303): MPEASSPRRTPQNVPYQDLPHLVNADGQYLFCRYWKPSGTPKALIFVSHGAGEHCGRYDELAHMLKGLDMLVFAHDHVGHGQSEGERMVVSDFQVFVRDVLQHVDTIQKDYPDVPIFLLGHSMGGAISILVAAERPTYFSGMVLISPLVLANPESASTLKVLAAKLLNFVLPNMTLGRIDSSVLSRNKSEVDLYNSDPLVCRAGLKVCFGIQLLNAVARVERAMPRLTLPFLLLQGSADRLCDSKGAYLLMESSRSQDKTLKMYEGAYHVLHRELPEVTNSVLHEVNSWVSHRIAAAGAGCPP
Briefly: In vitro competitive activity-based protein profiling, mouse MAGL. Type of experiment: biochemical. As to conditions: for inhibition at 1 µM: read-out: MAGL % inh. 1 μM (mouse); for inhibition at 10 µM: read-out: MAGL % inh. at 10 μM (mouse). As for the experimental part: (§1) In Vitro Competitive Activity-Based Protein Profiling.
(§2) Proteomes (mouse brain membrane fraction or cell lysates for mouse assays; human prefrontal cortex or cell membrane fractions for human assays) (50 μL, 1.0 mg/mL total protein concentration) were preincubated with varying concentrations of inhibitors at 37° C. After 30 min, FP-Rh or HT-01 (1.0 μL, 50 μM in DMSO) was added and the mixture was incubated for another 30 min at 37° C. Reactions were quenched with SDS loading buffer (15 μL—4×) and run on SDS-PAGE. Following gel imaging, serine hydrolase activity was determined by measuring fluorescent intensity of gel bands corresponding to MAGL and FAAH using ImageJ 1.43u software.

Experiment [2] deals with T2, FAAH (Mus musculus, UniProt O08914).
T2 construct: mouse brain membrane fraction or cell lysates for mouse assays; from tissue
T2 sequence (O08914 1-579): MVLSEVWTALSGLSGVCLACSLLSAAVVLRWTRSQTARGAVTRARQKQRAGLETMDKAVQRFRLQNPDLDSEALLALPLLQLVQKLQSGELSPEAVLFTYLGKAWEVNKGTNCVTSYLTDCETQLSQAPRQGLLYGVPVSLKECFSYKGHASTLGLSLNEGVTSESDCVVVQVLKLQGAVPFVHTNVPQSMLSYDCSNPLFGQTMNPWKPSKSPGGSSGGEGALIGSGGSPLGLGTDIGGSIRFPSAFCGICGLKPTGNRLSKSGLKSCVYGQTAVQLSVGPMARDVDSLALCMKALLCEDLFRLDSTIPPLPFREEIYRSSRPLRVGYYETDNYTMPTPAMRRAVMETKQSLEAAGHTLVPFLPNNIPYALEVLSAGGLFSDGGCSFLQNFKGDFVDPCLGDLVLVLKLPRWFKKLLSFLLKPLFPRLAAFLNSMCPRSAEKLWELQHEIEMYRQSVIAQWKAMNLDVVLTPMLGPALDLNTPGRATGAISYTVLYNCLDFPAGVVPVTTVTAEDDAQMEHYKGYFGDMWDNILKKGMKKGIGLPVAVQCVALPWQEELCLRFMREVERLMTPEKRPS
Briefly: In vitro competitive activity-based protein profiling, mouse FAAH. It is filed as biochemical. As to conditions: for inhibition at 1 µM: read-out: FAAH % inh. 1 μM (mouse); for inhibition at 10 µM: read-out: FAAH % inh. at 10 μM (mouse). As for the experimental part:
as §1, §2

Turning to `CNC(=O)c1cnn(C(=O)N2CC3CN(Cc4ccc(Cl)cc4)CC3C2)c1` (stereo not shown) [Example 17, 1-(5-(4-chlorobenzyl)octahydropyrrolo[3,4-c]pyrrole-2-carbonyl)-N-methyl-1H-pyrazole-4-carboxamide], in experiment [1], the IC50 is 1000 to 10000 nM and the inhibition at 1 µM fell in the range of 50 to 75%. Besides, in experiment [2], the IC50 is at most 100 nM and the inhibition at 1 µM was at least 75%.
Regarding `NC(=O)c1cnn(C(=O)N2CC3CN(Cc4ccc(C(F)(F)F)cc4)CC3C2)c1` (stereo not shown) [Example 18, 1-(5-(4-(trifluoromethyl)benzyl)octahydropyrrolo[3,4-c]pyrrole-2-carbonyl)-1H-pyrazole-4-carboxamide], the IC50 in experiment [1] and in experiment [2] was at most 100 nM in each case. Further, the inhibition at 1 µM in experiment [1] and in experiment [2] was at least 75% in each case.
For the molecule `CNC(=O)c1cnn(C(=O)N2CC3CN(Cc4ccc(C(F)(F)F)cc4)CC3C2)c1` (stereo not shown) [Example 19, N-methyl-1-(5-(4-(trifluoromethyl)benzyl)octahydropyrrolo[3,4-c]pyrrole-2-carbonyl)-1H-pyrazole-4-carboxamide], the IC50 is 100 to 1000 nM in experiment [1] and at most 100 nM in experiment [2]. Further, the inhibition at 1 µM in experiment [1] and in experiment [2] was at least 75% throughout.
In the case of `NC(=O)c1cnn(C(=O)N2CC3CN(Cc4cc(Cl)ccc4Cl)CC3C2)c1` (stereo not shown) [Example 20, 1-(5-(2,5-dichlorobenzyl)octahydropyrrolo[3,4-c]pyrrole-2-carbonyl)-1H-pyrazole-4-carboxamide], the IC50 in experiment [1] and in experiment [2] was at most 100 nM in each case. The inhibition at 1 µM in experiment [1] and in experiment [2] was at least 75% each time.
On to `CNC(=O)c1cnn(C(=O)N2CC3CN(Cc4cc(Cl)ccc4Cl)CC3C2)c1` (stereo not shown) [Example 21, 1-(5-(2,5-dichlorobenzyl)octahydropyrrolo[3,4-c]pyrrole-2-carbonyl)-N-methyl-1H-pyrazole-4-carboxamide], for which the figures for the IC50 in experiment [1] and in experiment [2] were 100 to 1000 nM and at most 100 nM, respectively. The inhibition at 1 µM in experiment [1] and in experiment [2] was at least 75% in each case.
With `O=C(c1cnn(C(=O)N2CC3CN(Cc4cc(Cl)ccc4Cl)CC3C2)c1)N1CCCC1` (stereo not shown) [Example 22, (5-(2,5-dichlorobenzyl)hexahydropyrrolo[3,4-c]pyrrol-2(1H)-yl)(4-(pyrrolidine-1-carbonyl)-1H-pyrazol-1-yl)methanone], the inhibition at 1 µM in experiment [1] and in experiment [2] was at least 75% in each case.
Turning to `NC(=O)c1cnn(C(=O)N2CC3CN(Cc4cccc(C(F)(F)F)c4)CC3C2)c1` (stereo not shown) [Example 23, 1-(5-(3-(trifluoromethyl)benzyl)octahydropyrrolo[3,4-c]pyrrole-2-carbonyl)-1H-pyrazole-4-carboxamide], the inhibition at 1 µM in experiment [1] and in experiment [2] was at least 75% throughout.
On to `CNC(=O)c1cnn(C(=O)N2CC3CN(Cc4cccc(C(F)(F)F)c4)CC3C2)c1` (stereo not shown) [Example 24, N-methyl-1-(5-(3-(trifluoromethyl)benzyl)octahydropyrrolo[3,4-c]pyrrole-2-carbonyl)-1H-pyrazole-4-carboxamide], for which, in experiment [1], the IC50 is at most 100 nM and the inhibition at 1 µM was at least 75%. For the same molecule, in experiment [2], the IC50 was at most 100 nM and the inhibition at 1 µM is at least 75%.
Regarding `NC(=O)c1cnn(C(=O)N2CC3CN(Cc4cc(Cl)cc(C(F)(F)F)c4)CC3C2)c1` (stereo not shown) [Example 25, 1-(5-(3-chloro-5-(trifluoromethyl)benzyl)octahydropyrrolo[3,4-c]pyrrole-2-carbonyl)-1H-pyrazole-4-carboxamide], in experiment [1], the IC50 was at most 100 nM and the inhibition at 1 µM is at least 75%. In addition, in experiment [2], the IC50 is at most 100 nM and the inhibition at 1 µM is at least 75%.
As to `CNC(=O)c1cnn(C(=O)N2CC3CN(Cc4cc(Cl)cc(C(F)(F)F)c4)CC3C2)c1` (stereo not shown) [Example 26, 1-(5-(3-chloro-5-(trifluoromethyl)benzyl)octahydropyrrolo[3,4-c]pyrrole-2-carbonyl)-N-methyl-1H-pyrazole-4-carboxamide], the inhibition at 1 µM in experiment [1] and in experiment [2] was at least 75% throughout.
Regarding `CNC(=O)c1cnn(C(=O)N2CC3CN(Cc4ccc(N5CCOCC5)cc4C(F)(F)F)CC3C2)c1` (stereo not shown) [Example 27, N-methyl-1-(5-(4-morpholino-2-(trifluoromethyl)benzyl)octahydropyrrolo[3,4-c]pyrrole-2-carbonyl)-1H-pyrazole-4-carboxamide], the inhibition at 1 µM in experiment [1] and in experiment [2] was at least 75% each time.
For the molecule `O=C(c1cnn(C(=O)N2CCC3(CCN(Cc4cc(Cl)ccc4Cl)C3)C2)c1)N1CCCC1` (stereo not shown) [Example 28, (1-(7-(2,5-dichlorobenzyl)-2,7-diazaspiro[4.4]nonane-2-carbonyl)-1H-pyrazol-4-yl)(pyrrolidin-1-yl)methanone], the inhibition at 1 µM in experiment [1] is 25 to 50%; in experiment [2] it was at least 75%.
Regarding `O=C(c1cnn(C(=O)N2CCC3(CCN(Cc4cc(Cl)ccc4Cl)C3)C2)c1)N1CCOCC1` (stereo not shown) [Example 29, (1-(7-(2,5-dichlorobenzyl)-2,7-diazaspiro[4.4]nonane-2-carbonyl)-1H-pyrazol-4-yl)(morpholino)methanone], the inhibition at 1 µM was 0 to 25% in experiment [1] and at least 75% in experiment [2]. For the same molecule, the inhibition at 10 µM in experiment [1] and in experiment [2] was 100% in each case.
On to `O=C(c1cnn(C(=O)N2CCC3(CCN(Cc4cc(Cl)ccc4Cl)C3)C2)c1)N1CCN(C2CC2)CC1` (stereo not shown) [Example 30, (4-cyclopropylpiperazin-1-yl)(1-(7-(2,5-dichlorobenzyl)-2,7-diazaspiro[4.4]nonane-2-carbonyl)-1H-pyrazol-4-yl)methanone], for which the inhibition at 1 µM in experiment [1] and in experiment [2] was at least 75% in each case.
With `O=C(c1cnn(C(=O)N2CCC3(CCN(Cc4cccc(C(F)(F)F)c4)C3)C2)c1)N1CCCC1` (stereo not shown) [Example 31, pyrrolidin-1-yl(1-(7-(3-(trifluoromethyl)benzyl)-2,7-diazaspiro[4.4]nonane-2-carbonyl)-1H-pyrazol-4-yl)methanone], the results for the inhibition at 1 µM in experiment [1] and in experiment [2] were 25 to 50% and at least 75%, respectively.
Take `O=C(c1cnn(C(=O)N2CCC3(CCN(Cc4cccc(C(F)(F)F)c4)C3)C2)c1)N1CCOCC1` (stereo not shown) [Example 32, (4-(morpholine-4-carbonyl)-1H-pyrazol-1-yl)(7-(3-(trifluoromethyl)benzyl)-2,7-diazaspiro[4.4]nonan-2-yl)methanone]: in experiment [1], the inhibition at 1 µM was in the range of 0 to 25% and the inhibition at 10 µM came out at 50%. Also, in experiment [2], the inhibition at 1 µM is at least 75% and the inhibition at 10 µM came to 100%.
Regarding `O=C(c1cnn(C(=O)N2CCC3(CCN(Cc4cccc(C(F)(F)F)c4)C3)C2)c1)N1CCN(C2CC2)CC1` (stereo not shown) [Example 33, (4-cyclopropylpiperazin-1-yl)(1-(7-(3-(trifluoromethyl)benzyl)-2,7-diazaspiro[4.4]nonane-2-carbonyl)-1H-pyrazol-4-yl)methanone], the inhibition at 1 µM in experiment [1] is at least 75%; in experiment [2] it was 50 to 75%.
Taken in the same sequence, the figures for `O=C(c1cnn(C(=O)N2CCC3(CCN(Cc4cc(Cl)cc(C(F)(F)F)c4)C3)C2)c1)N1CCCC1` (stereo not shown) [Example 34, (1-(7-(3-chloro-5-(trifluoromethyl)benzyl)-2,7-diazaspiro[4.4]nonane-2-carbonyl)-1H-pyrazol-4-yl)(pyrrolidin-1-yl)methanone] were at least 75% and at least 75%.
Taken in the same sequence, the figures for `O=C(c1cnn(C(=O)N2CCC3(CCN(Cc4cc(Cl)cc(C(F)(F)F)c4)C3)C2)c1)N1CCOCC1` (stereo not shown) [Example 35, (1-(7-(3-chloro-5-(trifluoromethyl)benzyl)-2,7-diazaspiro[4.4]nonane-2-carbonyl)-1H-pyrazol-4-yl)(morpholino)methanone] were at least 75% and 25 to 50%.
Turning to `O=C(c1cnn(C(=O)N2CCC3(CCN(Cc4cc(Cl)cc(C(F)(F)F)c4)C3)C2)c1)N1CCN(C2CC2)CC1` (stereo not shown) [Example 36, (1-(7-(3-chloro-5-(trifluoromethyl)benzyl)-2,7-diazaspiro[4.4]nonane-2-carbonyl)-1H-pyrazol-4-yl)(4-cyclopropylpiperazin-1-yl)methanone], the inhibition at 1 µM in experiment [1] and in experiment [2] was at least 75% each time.
